Results: ChEMBL document CHEMBL1146977, “Taxoid from the needles of the Himalayan yew Taxus wallichiana with cytotoxic and immunomodulatory activities” (Bioorg Med Chem Lett, 2006)
Converted amounts (≈) assume the structure as drawn.

Columns and labels:
Type in all cases: functional, cell-based
MCF7 [1] = assay: Cytotoxicity against human MCF7 cells by MTT assay
MCF7 [2] = assay: Cytotoxicity against human MCF7 cells by clonogenic assay
WRL68 [3] = assay: Cytotoxicity against human WRL68 cells by MTT assay
WRL68 [4] = assay: Cytotoxicity against human WRL68 cells by clonogenic assay
KB [5] = assay: Cytotoxicity against human KB cells by MTT assay
KB [6] = assay: Cytotoxicity against human KB cells by clonogenic assay
PA-1 [7] = assay: Cytotoxicity against human PA1 cells by MTT assay
PA-1 [8] = assay: Cytotoxicity against human PA1 cells by clonogenic assay
COLO 320DM [9] = assay: Cytotoxicity against human Colo320DM cells by MTT assay
COLO 320DM [10] = assay: Cytotoxicity against human Colo320DM cells by clonogenic assay

Structure (SMILES) | IC50 (MCF7 [1]) [µg/mL] | IC50 (MCF7 [2]) [µg/mL] | IC50 (WRL68 [3]) [µg/mL] | IC50 (WRL68 [4]) [µg/mL] | IC50 (KB [5]) [µg/mL] | IC50 (KB [6]) [µg/mL] | IC50 (PA-1 [7]) [µg/mL] | IC50 (PA-1 [8]) [µg/mL] | IC50 (COLO 320DM [9]) [µg/mL] | IC50 (COLO 320DM [10]) [µg/mL]
C=C1[C@H]2C[C@]3(O)C[C@H](OC(C)=O)C(C)=C([C@@H](OC(C)=O)[C@H](OC(C)=O)[C@]2(C)[C@@H](OC(C)=O)C[C@@H]1O)C3(C)C | 0.18 (≈ 0.335 µM) | 8.42 (≈ 15.7 µM) | 1.65 (≈ 3.07 µM) | 12.8 (≈ 23.9 µM) | 0.04 (≈ 0.0745 µM) | 1.23 (≈ 2.29 µM) | 0.01 (≈ 0.0186 µM) | 0.85 (≈ 1.58 µM) | 0.23 (≈ 0.429 µM) | 1.82 (≈ 3.39 µM)
CC[C@]1(O)C[C@@H]2CN(CCc3c([nH]c4ccccc34)[C@@](C(=O)OC)(c3cc4c(cc3OC)N(C)[C@H]3[C@@](O)(C(=O)OC)[C@H](OC(C)=O)[C@]5(CC)C=CCN6CC[C@]43[C@@H]65)C2)C1 [VINBLASTINE] | 0.02 (≈ 0.0247 µM) | 0.22 (≈ 0.271 µM) | 1.45 (≈ 1.79 µM) | 2.6 (≈ 3.21 µM) | 0.046 (≈ 0.0567 µM) | 0.46 (≈ 0.567 µM) | 0.025 (≈ 0.0308 µM) | 1.15 (≈ 1.42 µM) | 0.52 (≈ 0.641 µM) | 1.6 (≈ 1.97 µM)
CC[C@]1(O)C[C@H]2CN(CCc3c([nH]c4ccccc34)[C@@](C(=O)OC)(c3cc4c(cc3OC)N(C=O)[C@H]3[C@@](O)(C(=O)OC)[C@H](OC(C)=O)[C@]5(CC)C=CCN6CC[C@]43[C@@H]65)C2)C1 [VINCRISTINE] | 0.05 (≈ 0.0606 µM) | 0.15 (≈ 0.182 µM) | 1.42 (≈ 1.72 µM) | 8.5 (≈ 10.3 µM) | 0.02 (≈ 0.0242 µM) | 0.25 (≈ 0.303 µM) | 0.01 (≈ 0.0121 µM) | 1 (≈ 1.21 µM) | 0.46 (≈ 0.558 µM) | 1.5 (≈ 1.82 µM)
